Results as given in patent US9315546B2, “Growth hormone secretatogue receptor antagonists and uses thereof” (The Administrators of the Tulane Educational Fund, priority 2010, dated 2016).
“And” between values parts separate entries of the source, which are not always exact repeats. Equal values may be shown once. Where no end group is shown, it is not given here. [ ]: non-standard residue; d: D form.

Biological target: Ghrelin/GHRP/GHS Receptor (Rattus norvegicus, UniProt O08725)
Assay: GH release from cell culture of pituitary cells
Assay type: cell-based
Parameters: After dispersion, the cells were collected by centrifugation, wash with DMEM and placed into culture well; endogenous in cells; host or cells: dispersed primary rat pituitary cells, 4 days in culture
Details: for Unstimulated Basal GH release: Table 8
Protocol: In vitro GH Release-Female rats of the CD-1 strain were housed in a constant temperature room at 24° C. with 14 h light and 10 h darkness. The rats were fed Purina Rat chow and water at libitum. All studies were started between 0800-1000 hours. Pituitaries of mature female Sprague Dawley rats were rapidly removed after decapitation, neurointermediate lobe discarded and then placed in a pH 7.4 buffer. The pituitaries were cut into ˜3-mm pieces and then transferred to a flask containing HEPS buffer with trypsin and incubated at 37° C. Cells were triturated several times during this period. After dispersion, the cells were collected by centrifugation, wash with DMEM and placed into culture well. Cell cultures were maintained for 4 days at 37° with 8% CO2 added to the incubator atmosphere. After 4 days in culture, cells were washed with lactated Ringer's solution adjusted to pH 7.2-7.4 and then vehicle, peptide alone or peptide plus stimulator was added to media. Incubation time was 60-120 minutes after which media was removed from each well for GH determination. The GH RIA reagents were distributed by the NIH. Control data was collected from cell cultures treated with only the corresponding vehicle in the absence of peptide or stimulator. Control stimulated data was collected from cell cultures treated with stimulator alone in the absence of any peptide.

[1] = Table 10, compound 1 μg/ml + stimulator 1 ng/ml
[2] = Table 10, compound 3 μg/ml + stimulator 1 ng/ml
[3] = Table 10, compound 10 μg/ml + stimulator 1 ng/ml
[4] = Table 10, compound 30 μg/ml + stimulator 1 ng/ml
[5] = Table 10, compound alone 1 μg/ml
[6] = Table 10, compound alone 3 μg/ml
[7] = Table 10, compound alone 10 μg/ml
[8] = Table 10, compound alone 30 μg/ml
[9] = Table 11, compound 10 μg/ml + stimulator 1 ng/ml
[10] = Table 11, compound 30 μg/ml + stimulator 1 ng/ml
[11] = Table 11, compound alone 10 μg/ml
[12] = Table 11, compound alone 30 μg/ml

Ghrelin/GHRP/GHS Receptor, sequence (O08725 whole entry): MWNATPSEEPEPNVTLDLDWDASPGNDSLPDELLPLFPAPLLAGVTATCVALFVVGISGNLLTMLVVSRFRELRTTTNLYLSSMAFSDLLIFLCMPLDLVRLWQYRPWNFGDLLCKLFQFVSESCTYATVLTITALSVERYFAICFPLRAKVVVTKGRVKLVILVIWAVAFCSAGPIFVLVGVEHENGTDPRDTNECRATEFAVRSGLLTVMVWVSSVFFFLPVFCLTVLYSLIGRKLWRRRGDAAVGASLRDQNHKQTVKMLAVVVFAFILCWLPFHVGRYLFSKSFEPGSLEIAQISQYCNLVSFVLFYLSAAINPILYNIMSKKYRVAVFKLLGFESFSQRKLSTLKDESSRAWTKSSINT

N[C@H](Cc1c[nH]c2ccccc12)C(=O)N1CCC(c2ccccc2)CC1 [1-DTrp-4-phenylpiperdinamide, DTrp-4-phenylpiperdinamide]
Stimulated GH release (P + S) [1]: 1085 ± 1 ng/mL
Stimulated GH release (P + S) [2]: 917 ± 4 ng/mL
Stimulated GH release (P + S) [3]: 344 ± 6 ng/mL
Stimulated GH release (P + S) [4]: 486 ± 29 ng/mL
Unstimulated GH release [5]: 815 ± 26 ng/mL
Unstimulated GH release [6]: 390 ± 35 ng/mL
Unstimulated GH release [7]: 520 ± 61 ng/mL
Unstimulated GH release [8]: 577 ± 24 ng/mL

DAla-DcyclohexylAla-Ala-Ala-Phe-DPhe-Nle-NH2
Unstimulated Basal GH release (peptide 1 μg/ml): 286 ± 75 ng/mL
Unstimulated Basal GH release (peptide 3 μg/ml): 177 ± 44 ng/mL
Unstimulated Basal GH release (peptide 10 μg/ml): 271 ± 38 ng/mL
Unstimulated Basal GH release (peptide 30 μg/ml): 376 ± 28 ng/mL

COc1ccccc1C1CCN(C(=O)[C@@H](Cc2c[nH]c3ccccc23)NC(=O)C(C)(C)N)CC1 [αAibDTrp-p-(α-methoxylphenyl) piperidinamide]
Stimulated GH release (P + S) [9]: 441 ± 21 ng/mL
Stimulated GH release (P + S) [10]: 384 ± 16 ng/mL
Unstimulated GH release [11]: 365 ± 2 ng/mL
Unstimulated GH release [12]: 375 ± 30 ng/mL

Benzamide-DSerDLysTrp-p-phenylpiperidinamide
Stimulated GH release (P + S) [2]: 432 ± 25 ng/mL
Stimulated GH release (P + S) [3]: 353 ± 10 ng/mL
Unstimulated GH release [6]: 393 ± 54 ng/mL
Unstimulated GH release [7]: 369 ± 30 ng/mL

DPhe-Ala-Phe-DPal-NH2 [6-DPhe-Ala-Phe-DPal-NH2]
Unstimulated Basal GH release (peptide 3 μg/ml): 170 ± 19 ng/mL
Unstimulated Basal GH release (peptide 10 μg/ml): 181 ± 31 ng/mL
Unstimulated Basal GH release (peptide 30 μg/ml): 161 ± 20 ng/mL
Unstimulated Basal GH release (peptide 100 μg/ml): 146 ± 21 ng/mL

[dK]Y[dW][dW]F-NH2 [8-DLys-Tyr-DTrp-DTrp-Phe-NH2]
Unstimulated Basal GH release (peptide 1 μg/ml): 1451 ± 19 ng/mL
Unstimulated Basal GH release (peptide 3 μg/ml): 1175 ± 77 ng/mL
Unstimulated Basal GH release (peptide 10 μg/ml): 1129 ± 6 ng/mL
Unstimulated Basal GH release (peptide 30 μg/ml): 744 ± 44 ng/mL

CC(C)(N)C(=O)N[C@H](COCc1ccccc1)C(=O)N1CCN(c2ccccc2)CC1 [αAibDSer(BZL)-N′-phenyl-N-piperazinamide]
Stimulated GH release (P + S) [3]: 878 ± 30 ng/mL
Stimulated GH release (P + S) [4]: 510 ± 15 ng/mL
Unstimulated GH release [7]: 777 ± 34 ng/mL
Unstimulated GH release [8]: 499 ± 18 ng/mL

COc1ccccc1N1CCN(C(=O)c2cc3ccccc3cc2C(=O)N2CCN(c3ccccc3OC)CC2)CC1 [2,3-di[N-(2-methoxylphenyl)piperazyl-naphthalenecarboxylamide]
Stimulated GH release (P + S) [1]: 654 ± 18 ng/mL
Stimulated GH release (P + S) [2]: 442 ± 4 ng/mL
Stimulated GH release (P + S) [3]: 537 ± 28 ng/mL and 648 ± 16 ng/mL
Stimulated GH release (P + S) [4]: 309 ± 46 ng/mL
Unstimulated GH release [5]: 338 ± 3 ng/mL
Unstimulated GH release [6]: 204 ± 10 ng/mL
Unstimulated GH release [7]: 262 ± 4 ng/mL and 136 ± 11 ng/mL
Unstimulated GH release [8]: 118 ± 8 ng/mL

C=C(C)CON=C(c1ccccc1)c1ccccc1 [5-O-(2-methylallyl) benzophonone oxime, O-(2-methylallyl) benzophonone oxime]
Stimulated GH release (P + S) [3]: 1281 ± 58 ng/mL
Stimulated GH release (P + S) [4]: 699 ± 53 ng/mL
Unstimulated GH release [7]: 929 ± 28 ng/mL
Unstimulated GH release [8]: 616 ± 23 ng/mL

Arg-DTrp-Leu-Tyr-Trp-Pro(cyclic Arg-Pro) (WLYWP; HELM PEPTIDE1{R.[dW].L.Y.W.P}$PEPTIDE1,PEPTIDE1,1:R1-6:R2$$$V2.0; SMILES CC(C)C[C@@H]1NC(=O)[C@@H](Cc2c[nH]c3ccccc23)NC(=O)[C@H](CCCNC(=N)N)NC(=O)[C@@H]2CCCN2C(=O)[C@H](Cc2c[nH]c3ccccc23)NC(=O)[C@H](Cc2ccc(O)cc2)NC1=O)
Unstimulated Basal GH release (peptide 3 μg/ml): 1480 ± 19 ng/mL
Unstimulated Basal GH release (peptide 10 μg/ml): 802 ± 26 ng/mL
Unstimulated Basal GH release (peptide 30 μg/ml): 601 ± 16 ng/mL
Unstimulated Basal GH release (peptide 100 μg/ml): 509 ± 49 ng/mL

DPal-Trp-DPhe-Phe-Met-NH2 [14-DPal-Trp-DPhe-Phe-Met-NH2]
Unstimulated Basal GH release (peptide 3 μg/ml): 1105 ± 18 ng/mL
Unstimulated Basal GH release (peptide 10 μg/ml): 891 ± 4 ng/mL
Unstimulated Basal GH release (peptide 30 μg/ml): 567 ± 24 ng/mL

Ac-DβNal-DTrp-NH2 [2-Ac-DβNal-DTrp-NH2]
Unstimulated Basal GH release (peptide 3 μg/ml): 1264 ± 2 ng/mL
Unstimulated Basal GH release (peptide 10 μg/ml): 980 ± 72 ng/mL
Unstimulated Basal GH release (peptide 30 μg/ml): 699 ± 7 ng/mL

COC(=O)c1cc2ccccc2cc1C(=O)Nc1ccc(C)cc1 [2-[methylester]-3-[p-methylphenylamidenaphthalenecarboxylamide]
Stimulated GH release (P + S) [9]: 1149 ± 33 ng/mL
Stimulated GH release (P + S) [10]: 886 ± 29 ng/mL
Unstimulated GH release [11]: 754 ± 32 ng/mL
Unstimulated GH release [12]: 498 ± 26 ng/mL

CCOC(=O)c1cc2ccccc2cc1C(=O)Nc1cccc(OC)c1 [2-[ethylester-3-m-methoxylphenylamide] naphthalene carboxylamide]
Stimulated GH release (P + S) [9]: 670 ± 32 ng/mL
Stimulated GH release (P + S) [10]: 458 ± 15 ng/mL
Unstimulated GH release [11]: 698 ± 18 ng/mL
Unstimulated GH release [12]: 552 ± 20 ng/mL

[dF]W[dF]FM-NH2 [13-DPhe-Trp-DPhe-Phe-Met-NH2]
Unstimulated Basal GH release (peptide 3 μg/ml): 1146 ± 34 ng/mL
Unstimulated Basal GH release (peptide 10 μg/ml): 1086 ± 32 ng/mL
Unstimulated Basal GH release (peptide 30 μg/ml): 871 ± 89 ng/mL

αAib-DTrp-DcyclohexylAla-NH2 [3-αAib-DTrp-DcyclohexylAla-NH2]
Unstimulated Basal GH release (peptide 1 μg/ml): 980 ± 44 ng/mL
Unstimulated Basal GH release (peptide 3 μg/ml): 826 ± 32 ng/mL
Unstimulated Basal GH release (peptide 10 μg/ml): 602 ± 53 ng/mL
Unstimulated Basal GH release (peptide 30 μg/ml): 492 ± 11 ng/mL

N[C@H](COCc1ccccc1)C(=O)N1CCN(c2ccccc2)CC1 [6-D Ser(BZL)-N′-phenyl-N-piperazinamide, D Ser(BZL)-N′-phenyl-N-piperazinamide]
Stimulated GH release (P + S) [3]: 719 ± 26 ng/mL
Stimulated GH release (P + S) [4]: 435 ± 0 ng/mL
Unstimulated GH release [7]: 585 ± 10 ng/mL
Unstimulated GH release [8]: 368 ± 2 ng/mL

DPal-Phe-DTrp-Phe-Met-NH2 [12-DPal-Phe-DTrp-Phe-Met-NH2]
Unstimulated Basal GH release (peptide 3 μg/ml): 1081 ± 50 ng/mL
Unstimulated Basal GH release (peptide 10 μg/ml): 997 ± 30 ng/mL
Unstimulated Basal GH release (peptide 30 μg/ml): 425 ± 25 ng/mL

αAib-DTrp-DAla-cyclohexylAla-NH2 [4-αAib-DTrp-DAla-cyclohexylAla-NH2]
Unstimulated Basal GH release (peptide 1 μg/ml): 1086 ± 52 ng/mL
Unstimulated Basal GH release (peptide 3 μg/ml): 1103 ± 18 ng/mL
Unstimulated Basal GH release (peptide 10 μg/ml): 994 ± 22 ng/mL
Unstimulated Basal GH release (peptide 30 μg/ml): 704 ± 115 ng/mL

[dF]AF[dF]K-NH2 [7-DPhe-Ala-Phe-DPhe-Lys-NH2]
Unstimulated Basal GH release (peptide 10 μg/ml): 267 ± 27 ng/mL
Unstimulated Basal GH release (peptide 30 μg/ml): 276 ± 65 ng/mL
Unstimulated Basal GH release (peptide 100 μg/ml): 360 ± 84 ng/mL

H[dW][dW]K-NH2 [1-His-DTrp-DTrp-Lys-NH2]
Unstimulated Basal GH release (peptide 3 μg/ml): 1124 ± 37 ng/mL
Unstimulated Basal GH release (peptide 10 μg/ml): 749 ± 10 ng/mL
Unstimulated Basal GH release (peptide 30 μg/ml): 615 ± 41 ng/mL

Ac-DβNal-PlcLys-ILys-DPhe-NH2 [11-Ac-DβNal-PlcLys-ILys-DPhe-NH2]
Unstimulated Basal GH release (peptide 3 μg/ml): 1013 ± 207 ng/mL
Unstimulated Basal GH release (peptide 10 μg/ml): 976 ± 13 ng/mL
Unstimulated Basal GH release (peptide 30 μg/ml): 928 ± 16 ng/mL

1,3-diaminobutyricamide-DβNal-4-phenylpiperidinamide
Stimulated GH release (P + S) [9]: 644 ± 33 ng/mL
Stimulated GH release (P + S) [10]: 529 ± 20 ng/mL
Unstimulated GH release [11]: 794 ± 34 ng/mL
Unstimulated GH release [12]: 504 ± 20 ng/mL

p-phenyl(piperidinamide-DTrpLysSer(BZL)-acetylamide
Stimulated GH release (P + S) (Table 11, compound 1 μg/ml + stimulator 1 ng/ml): 680 ± 13 ng/mL
Stimulated GH release (P + S) (Table 11, compound 3 μg/ml + stimulator 1 ng/ml): 489 ± 41 ng/mL
Stimulated GH release (P + S) [9]: 245 ± 16 ng/mL
